Reference: PMC11251039, “Harnessing cholesterol uptake of malaria parasites for therapeutic applications” (EMBO Molecular Medicine, 2024)
Where “and” joins values, the source holds several entries; their conditions need not be identical. Equal values may be shown once.

Tests used:
[1] = tested on: asexual P. falciparum CAM3.IIREV (Susceptible); assay: P. falciparum asexual growth inhibition assay, revertant strain; type: cell-based; settings: Plasmodium falciparum, 72 h, read-out: IC50, P. falciparum asexual growth inhibition
Description: (§1) P. falciparum asexual parasite assays commenced with ring-stage parasites at 1% parasitaemia and 1% haematocrit. 200 nM chloroquine (Sigma C6628) or artesunate (Sigma A3731) was used as a no-growth control. DNA replication (indicating growth) was measured at the specified time using SYBR Safe DNA Gel Stain (Invitrogen 33102) and a fluorescence microplate reader (Smilkstein et al, [2004]; Spry et al, [2013]).
(§2) Appendix Fraser/Curtis et al.
(§3) Growth and Viability Inhibition Assays:
(§4) Plasmodium falciparum Growth Inhibition Assays:
(§5) P. falciparum parasites were maintained under routine culture conditions in red blood cells and RPMI 1640-Hepes with Glutamax, supplemented with 10 mM D-glucose, 480 μM hypoxanthine, 20 μg/mL gentamicin, 0.375% (w/v) AlbuMAXTM II (Thermo Fisher 11021029), and 2.5% v/v heat-inactivated human serum (17). Cultures were maintained at 37 °C […]
(§6) Growth inhibition was investigated according to methods described by Smilkstein et al. (19) with modifications by Spry et al. (20). […] 200 nM chloroquine (Sigma C6628) or artesunate (Sigma A3731) was used as a positive control to determine background fluorescence. The parasitaemia of a culture containing predominantly ring stage parasites was counted by Giemsa smear. […] Fluorescence was detected at 490 nm excitation/ 520 nm emission on a FLUOstar Optima fluorescence plate reader (BMG Labtech).

[2] = design: method as in Morris et al, 2011; settings: ref Morris et al, 2011; cited from earlier work
[3] = tested on: P. falciparum CAM3.II ring stages (0–3 h post invasion); assay: Plasmodium falciparum ring stage survival assay, resistant strain; type: cell-based
Description: (§7) Following tight synchronisation using sorbitol and Percoll® floatation, ring stage CAM3.II and CAM3.IIREV parasites (0–3 h post invasion) at 1% parasitaemia and 2% haematocrit were incubated with 700 nM of compounds or solvent-only controls for exactly 6 h, before removing the drug, thoroughly washing in RPMI with HEPES, and returning to culture conditions for a further 66 h. Some cells were treated with 700 nM artesunate for 72 h as a no-growth control. DNA replication (indicating growth) was measured at the specified time using SYBR Safe DNA Stain. Microscope slide smears of each condition were stained with 10% v/v Giemsa and examined under a light microscope (×1000 magnification); with ‘viable’ (morphologically normal) and ‘non-viable’ (morphologically aberrant; vacuolated or pyknotic) parasites distinguished according to standard protocol (Witkowski et al, [2013]). Images were captured using a Leica ICC50 camera, with a resolution of 76 nm per pixel, and cropped from larger images using Fiji ImageJ.
as §2
(§8) Cells were detached from a flask using 0.25% Trypsin with 0.2 g/L EDTA (Sigma T4049) and washed with culture media containing no phenol red. Cells were incubated with a serial dilution of each compound, or media/DMSO alone. The protein synthesis inhibitor cycloheximide (Sigma 01810) at 10 µg/mL was used as a positive control to determine background absorbance. 5,000 cells were seeded in each well. After 96 hours, 0.45 mg/mL methylthiazolyldiphenyl-tetrazolium bromide (MTT; Sigma M2128) was added and incubated for a further two hours, before mixing 1.1:1 with 10% w/v sodium dodecyl sulfate (SDS) to solubilise crystals and freezing the plate at -18 °C to stop the assay. Plates were defrosted at room temperature and absorbance was read at 570 nm in an Infinite M1000 pro plate reader […]
(§9) Plasmodium falciparum Ring Stage Survival Assay
(§10) Ring stage survival assays were conducted according to standard protocols with some modifications (27, 28). CAM3.11 and CAM3.11REV parasites were sorbitol synchronised twice, 12 hours apart, and then incubated for a further 30 hours until the majority of the parasites were mature schizonts (with clearly separated nuclei). Pelleted RBCs were incubated at 37 °C with heparinised RPMI for 15 minutes, and then centrifuged over 75% Percoll® in PBS for 15 minutes at 1,000 g. Mature schizonts were collected, washed with warm RPMI, and cultured for exactly three hours with fresh uRBCs and culture media. After 3 hours, the cultures were sorbitol synchronised and incubated in duplicate with 700 nM of artesunate, PAYb076a, GGA5, HJB8a53, a DMSO solvent-only control or media alone for exactly six hours, before removing the drug, washing in RPMI, and returning to culture conditions. Samples of each cell suspension were transferred to a -18 °C freezer at the start of the assay (time = 0) or treated for the entire 72 hours with 700 nM artesunate to determine background fluorescence under no-growth conditions. After a further 66 hours of incubation (totalling 72 hours), cells were […]
(§11) resuspended, and a sample from each well was transferred to a fresh plate and frozen at -18 °C.
(§12) Microscope slide smears were made using the remaining cells and stained with 10% v/v Giemsa. Plates were thawed and SYBR Safe DNA Gel Stain (final concentration 1/10,000) diluted in lysis buffer (as above) was added for DNA detection at 490 nm excitation / 520 nm emission on a FLUOstar Optima fluorescence plate reader. Parasite proliferation and viability were also assessed using Giemsa-stained smears examined under a light microscope (1,000× magnification); with ‘viable’ and ‘non-viable’ (vacuolated or pyknotic) parasites distinguished according to standard protocol. Images were captured using a Leica ICC50 camera, with a resolution of 76 nm per pixel.
(§13) Growth inhibition data were normalised by subtracting background fluorescence, […]

[4] = tested on: asexual P. falciparum 3D7 wild-type parasites; assay: P. falciparum asexual growth inhibition assay (SYBR Safe DNA replication); type: cell-based, Plasmodium falciparum; settings: Plasmodium falciparum; 72 h, 3D7 (Susceptible); read-out: IC50, P. falciparum asexual growth inhibition
Procedure, shortened: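 Sorbitol-synchronised ring-stage cultures at 1% parasitaemia and 1% haematocrit were exposed to 2-fold compound dilutions at 37 °C under microaerophilic conditions for 24, 48 or 72 h. Growth was read by SYBR Safe fluorescence of freeze-thaw lysates, with 200 nM chloroquine or artesunate defining background.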

[5] = tested on: P. falciparum CAM3.IIREV ring stages (0–3 h post invasion); assay: Plasmodium falciparum ring stage survival assay, susceptible revertant strain; type: cell-based
Description: as §7, §2, §8, §9, §10, §11, §12, §13

[6] = tested on: asexual P. falciparum CAM3.II (Resistant); assay: P. falciparum asexual growth inhibition assay, resistant strain; type: cell-based; settings: Plasmodium falciparum; 72 h, CAM3.II (Resistant); read-out: IC50, P. falciparum asexual growth inhibition
Description: as §1, §2, §3, §4, §5, §6

C[C@H]1[C@H](OC(=O)CCC(=O)O)O[C@@H]2O[C@@]3(C)CC[C@H]4[C@H](C)CC[C@@H]1[C@@]24OO3 [Artesunate, artesunate, reference compound]
IC50 [1]: 5.7 nM | Half-life in blood [2]: 30 to 90 min | Proportion of resistant parasites surviving treatment (DNA replication) ([3]; 700 nM, 6 h treatment, 66 h further growth, CAM3.II): ~ 30% | Parasite morphology in Giemsa-stained smears ([3]; 700 nM, 6 h treatment, 66 h further growth, CAM3.II resistant): a combination of morphologically normal parasites (green arrows) and morphologically aberrant pyknotic or vacuolated forms | Ring stage survival, individual data points (Figure 4C) ([3]; CAM3.11, replicate experiments): 35.31 and 54.58 and 24.97 and 17.6 | IC50 [4]: 6.7 nM | Parasite morphology in Giemsa-stained smears ([5]; 700 nM, 6 h treatment, 66 h further growth, CAM3.IIREV susceptible): only morphologically aberrant parasites were present | Ring stage survival, individual data points (Figure 4C) ([5]; CAM3.11REV, replicate experiments): -6.969 and -6.239 and -6.353 and -8.044 | IC50 [6]: 6.7 nM
